Measured values from patent EP0196574A2, “4,4'-Diaminodiphenyl compounds, process for their preparation and their use” (HOECHST AKTIENGESELLSCHAFT, priority 1985, dated 1986).

Tested on: Salmonella typhimurium (Stämme TA 98, TA 100, TA 1535, TA 1537, TA 1538)
Test: Ames mutagenicity test
Type: cell-based
Settings: strains TA 98, TA 100, TA 1535, TA 1537, TA 1538, ohne und in Gegenwart von S-9-Mix; for Ames-Test: table of further examples
Excerpt: Die folgenden Beispiele sollen die Erfindung näher beschreiben. Der Mutagenitätstest wurde nach Ames mit Salmonella typhimurium (Stämme TA 98, TA 100, TA 1535, TA 1537, TA 1538) ohne und in Gegenwart von S-9-Mix durchgeführt (B.N. Ames et al., Mut. Res. Vol. 31, S. 347 - 364 (1975)).

Row | Compound | Mutagenitätstest nach Ames | Ames-Test
1 | CC(C)c1cc(-c2ccc(N)c(C(C)C)c2)ccc1N [Beispiel 1, 3,3-Diisopropyl-benzidin-dichlorhydrat] | negativ | –
2 | CC(C)COc1cc(-c2ccc(N)c(OCC(C)C)c2)ccc1N [Beispiel 2, 3,3'-Di-isobutoxybenzidin] | negativ | –
3 | COCCOc1cc(-c2ccc(N)c(OCCOC)c2)ccc1N [Beispiel 3, 3,3'-Di-(2-methoxyethoxy)-benzidin] | negativ | –
4 | CCCc1cc(-c2ccc(N)c(CCC)c2)ccc1N [Beispiel 4] | – | negativ
5 | CCCCc1cc(-c2ccc(N)c(CCCC)c2)ccc1N [Beispiel 5] | – | negativ
6 | CC(C)Cc1cc(-c2ccc(N)c(CC(C)C)c2)ccc1N [Beispiel 6] | – | negativ
7 | CCC(C)c1cc(-c2ccc(N)c(C(C)CC)c2)ccc1N (stereo not shown) [Beispiel 7] | – | negativ
8 | CCCOc1cc(-c2ccc(N)c(OCCC)c2)ccc1N [Beispiel 8] | – | negativ
9 | CC(C)Oc1cc(-c2ccc(N)c(OC(C)C)c2)ccc1N [Beispiel 9] | – | negativ
10 | CCC(C)Oc1cc(-c2ccc(N)c(OC(C)CC)c2)ccc1N (stereo not shown) [Beispiel 10] | – | negativ
